Source: paper PMC10313368 (The Journal of Clinical Investigation, 2023)
Where “and” joins values, the source holds several entries; their conditions need not be identical. Equal values may be shown once. Read-outs that look alike come from different tables or passages of the source.

Legend:
C57BL/6 mice = experiment: Flash scotopic ERG after a single intraocular injection; assay type: in vivo, mouse; settings: for A wave / B wave: in µV (unit assumed)
Description: Intraocular injections. Intravitreal injections were performed with a PLI-100A Pico-liter Microinjector (Warner Instruments, Harvard Bioscience) using pulled-glass micropipettes. Each micropipette was calibrated to deliver a 1 μl volume on depression of a foot switch. […]
Flash scotopic ERGs. All procedures were performed under dim red light. Mice were dark adapted overnight, anesthetized with ketamine (50 mg/kg) and xylazine (5mg/kg) and pupils were dilated with a topical drop of tropicamide (1%). Scotopic ERG responses were measured using the Celeris ERG stimulator (Diagnosys, Lowell, MA) at flash intensities of 0.025, 0.25, 2.5, 7.96, and 79.06 cd/s/m2. ERGs were measured simultaneously from both eyes with a ground electrode placed into the forehead between the eyes and a reference electrode into the hip. […]

[1] = Mouse pharmacokinetics in retina after intraocular injection (LC-MS/MS); assay type: in vivo; settings: for AUC % Extrapolated / AUClast / Cmax / half-life / Tmax: retina; for half-life / Tmax: C57BL/6, mouse, topical or ocular; for half-life: 280 ng
Description: intraocular injection. Mice (at least 3 mice per time point) were euthanized at 1, 3, 7, or 14 days after injection. For the 280-ng dose, a 10-day time point was added. […]
retina by LC-MS/MS as previously described (5) with the following modifications. Retina tissue samples were homogenized in 200 μL of 1× PBS (pH 7.4) before extraction. The standard curve and quality control samples were prepared in 1× PBS as a surrogate matrix. Retina tissue samples were then quantitated in µM as: nominal concentration (µM) × initial dilution ([tissue weight (mg) + volume of solvent (μl)]/ tissue weight (mg)). For all samples <10 nM, the value was reported as below the limits of detection. If at least on samples was >10 nM and one was <10 nM, then one half that value (5 nM) was imputed to calculate the concentration for that specimen and utilized in the average and standard deviation calculations.
Pharmacokinetic parameters were calculated from mean concentration-time data using noncompartmental methods in Phoenix WinNonlin version 8.3 (Certara, Princeton, NJ, USA). The Cmax and time to Cmax (Tmax) were the observed values. The AUClast was calculated using the log-linear trapezoidal method to the last quantifiable time point. The λz was determined from at least 3 points on the slope of the terminal phase of the concentration-time profile using a 1/y2 weighting factor. The T1/2 was determined by dividing 0.693 by λz. T1/2 was not reported if the correlation coefficient (r2) for λz was less than 0.9.
Bioanalytical method for mouse pharmacokinetics. Retina tissue samples were homogenized in 200 μL of 1× PBS (pH 7.4) before extraction. The standard curve and quality control samples were prepared in 1× PBS as a surrogate matrix for all matrices. Tissue homogenate or PBS (25 μL) was […]
respectively. Dwell time was 150 milliseconds. […]
constructed from the peak area ratio of the analyte to the peak area of its internal standard (EXP-3179) using the least-squares quadratic regression analysis with 1/x2 weight over the range of 10-2,110 nM with dilutions of up to 1:10 (v/v). […]

[2] = tested on: HIF transcriptional activity; settings: cell-based reporter assay; read-out: IC50, inhibition of HIF transcriptional activity; cited from earlier work

## Brc1ccc2c(-c3csc(-c4c[nH]c5c(Br)cccc45)n3)c[nH]c2c1 [32-134D, 4-(6-bromo-1H-indol-3-yl)-2-(7-bromo-1H-indol-3-yl)thiazole]
C57BL/6 mice; 32-134D 70, 140, 210, 350 ng single intraocular injection, up to 5 weeks
  retinal toxicity on ERG: did not observe any evidence of retina toxicity
C57BL/6 mice; DAY7, flash 0.25, 140NG
  A wave: 84.49 and 88.87
C57BL/6 mice; DAY7, flash 2.5, 140NG
  A wave: 138.4 and 109.3
C57BL/6 mice; DAY7, flash 7.96, 140NG
  A wave: 181.6 and 123.7
  B wave: 337.9
C57BL/6 mice; DAY7, flash 79.06, 140NG
  B wave: 327.7
C57BL/6 mice; DAY14, flash 0.025, 70NG
  B wave: 149.2 and 168.6 and 209.2 and 152.4 and 190.2 and 184.53 and 268.4
C57BL/6 mice; DAY14, flash 0.025, 140NG
  B wave: 158.1
C57BL/6 mice; DAY14, flash 0.25, 70NG
  A wave: 69.71 and 75.03 and 99.56 and 75.32 and 55.14 and 80.45 and 95.29
  B wave: 204.5 and 293.7 and 273.9 and 206.4 and 256.8 and 214.7 and 313
C57BL/6 mice; DAY14, flash 0.25, 140NG
  A wave: 76.62 and 123.2
  B wave: 209.6
C57BL/6 mice; DAY14, flash 2.5, 70NG
  A wave: 116.4 and 108.2 and 136.4 and 117.2 and 152.87 and 100.6 and 158.9
  B wave: 215 and 216 and 281.6 and 293.7 and 254.6 and 294.3 and 388.9
C57BL/6 mice; DAY14, flash 2.5, 140NG
  A wave: 128 and 175.3
  B wave: 257.2
C57BL/6 mice; DAY14, flash 7.96, 70NG
  A wave: 135.7 and 102.5 and 159.1 and 157 and 172.6 and 118.4 and 175.8
  B wave: 256.6 and 296.2 and 276.2 and 330.1 and 232.5 and 333.4 and 391
C57BL/6 mice; DAY14, flash 7.96, 140NG
  A wave: 138.7 and 208.7
  B wave: 262.8
C57BL/6 mice; DAY14, flash 79.06, 70NG
  A wave: 161.6 and 123.9 and 177.3 and 180.4 and 182.2 and 135.3 and 174.3
  B wave: 232.9 and 293.2 and 237.9 and 340.7 and 256.5 and 324.6 and 372.7
C57BL/6 mice; DAY14, flash 79.06, 140NG
  A wave: 168.4 and 191
  B wave: 300.7
C57BL/6 mice; DAY21, flash 0.025, 140NG
  B wave: 129.1
C57BL/6 mice; DAY21, flash 0.25, 70NG
  A wave: 76.13 and 75.12 and 97.06 and 99.13 and 63.13 and 91.99 and 97.31
  B wave: 236.1 and 170.7 and 170.8 and 248.9 and 189.8 and 286.3 and 297.9
C57BL/6 mice; DAY21, flash 0.25, 140NG
  B wave: 175.7
C57BL/6 mice; DAY21, flash 2.5, 70NG
  A wave: 112.6 and 110.6 and 152.6 and 169.8 and 108.4 and 159.7 and 165.1
  B wave: 298.7 and 211.6 and 203 and 296 and 196.2 and 332.2 and 364.3
C57BL/6 mice; DAY21, flash 7.96, 70NG
  A wave: 105.9 and 120.3 and 162.9 and 176.2 and 125.7 and 175.1 and 172
  B wave: 315.1 and 232.4 and 223 and 328.4 and 215.9 and 350.1 and 374.6
C57BL/6 mice; DAY21, flash 7.96, 140NG
  A wave: 126.8 and 195.8
C57BL/6 mice; DAY21, flash 79.06, 70NG
  A wave: 108.1 and 130.3 and 166.3 and 180.2 and 139.8 and 172.8 and 188
  B wave: 286.8 and 226.3 and 206.8 and 273.5 and 273.2 and 297.6 and 298.6
C57BL/6 mice; DAY21, flash 79.06, 140NG
  A wave: 148.7 and 231
C57BL/6 mice; DAY28, flash 2.5, 140NG
  A wave: 148.8 and 128.1
C57BL/6 mice; DAY28, flash 7.96, 70NG
  A wave: 118.7 and 202.6 and 114.3 and 192.2 and 119.5 and 102.4 and 173.1
C57BL/6 mice; DAY28, flash 7.96, 140NG
  A wave: 168.7
C57BL/6 mice; DAY28, flash 79.06, 70NG
  A wave: 125.3 and 187.6 and 118.9 and 161.8 and 121.28 and 110 and 160.6
C57BL/6 mice; DAY28, flash 79.06, 140NG
  A wave: 153
C57BL/6 mice; DAY35, flash 2.5, 140NG
  A wave: 66
C57BL/6 mice; DAY35, flash 79.06, 70NG
  A wave: 74.06 and 95.89 and 102 and 95.42 and 92.65 and 81.18 and 82.72
  B wave: 112.4 and 198.3 and 140.3 and 150.2 and 167.5 and 220.3 and 163
[1]; 70 ng eyeball
  AUC % Extrapolated: 21.1%
  AUClast: 72.3 nmol·days/g
  Cmax: 19.1 nmol/g
  Tmax: 24 h
[1]; 280 ng eyeball
  AUC % Extrapolated: 2.2%
  AUClast: 147 nmol·days/g
  Cmax: 18 nmol/g
  Tmax: 24 h
[1]; 280 ng eyeball, read-out: T1/2 (converted)
  half-life: 42.2 h
[1]; single 280 ng intraocular injection, read-out: t1/2 in retina (converted)
  half-life: 43.2 h
[1]; single 70 ng intraocular injection
  Cmax in neurosensory retina: 19.1 nmol/g
[1]; single 70 ng intraocular injection, over 14 days
  AUClast in retina: 72.3 nmol·days/g
[1]; single 280 ng intraocular injection
  Cmax in neurosensory retina: 18 nmol/g
[1]; single 280 ng intraocular injection, through 14 days
  AUClast in retina: 147 nmol·days/g
[1]; threshold in the pharmacokinetic calculation
  IC50 as used for time above IC50: 3.51 nmol/g
[2]
  IC50: < 4 µM
